From ChEMBL document CHEMBL1201862, “PubChem BioAssay data set” (2004)
The source made the active and inactive calls.

Assays:
[1] = biological target: Beta-galactosidase (Escherichia coli, UniProt Q8VNN2); assay: beta-galactosidase enzyme inhibitors and activators, dose response, artefact control for CCR6 antagonist project, biochemical, E. coli enzyme, set 3 (AID 504712); type: functional
[2] = biological target: C-C chemokine receptor type 6 (Homo sapiens, UniProt P51684); assay: CCR6 receptor antagonists, dose response, cell-based, luminescent beta-arrestin readout (AID 504728); type: functional
[3] = biological target: DNA dC->dU-editing enzyme APOBEC-3G (Homo sapiens, UniProt Q9HC16); assay: Dose Response confirmation of small molecule APOBEC3G DNA Deaminase Inhibitors via a fluorescence-based single-stranded DNA deaminase assay. [Related pubchem assays (depositor defined):AID493012, AID493028]; type: functional
[4] = cells
[5] = HEp-2 cell cytotoxicity, dose response, cytotoxicity control for RSV inhibitor project, HTS (AID 2410); type: functional; settings: human respiratory syncytial virus
[6] = biological target: Cytochrome P450 2D6 (Homo sapiens, UniProt P10635); assay: qHTS Assay for Inhibitors and Substrates of Cytochrome P450 2D6. [Related pubchem assays: 410 ]; type: ADME; settings: read-out: Potency
[7] = M. tuberculosis H37Rv growth inhibitors, H37Rv strain (AID 1626); type: functional
[8] = tested on: Vero; assay: host cell cytotoxicity of antiviral hits, dose response, cytotoxicity control for West Nile virus antiviral project, secondary assay (AID 1650); type: functional; settings: Chlorocebus sabaeus
[9] = tested on: Streptococcus sp. 'group A'; assay: growth inhibition of control SK(-) GAS strain, dose response, counter-screen for streptokinase expression inhibitor project, luminescence, kanamycin, BacTiterGlo, confirmation (AID 1900); type: functional, organism-based
[10] = tested on: Streptococcus; assay: Group A Streptococcus viability loss, dose response, counter-screen for streptokinase expression inhibitor project, luminescence, BacTiterGlo (AID 1915); type: functional, organism-based;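 also: potency for reduction of bacterial viability or growth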
[11] = biological target: T1, Streptokinase A (Streptococcus pyogenes serotype M1, UniProt P10520); assay: S. pyogenes streptokinase expression inhibitors, potency, dose response, plasminogen activation absorbance, OD405 (AID 1914); type: functional, Streptococcus pyogenes M1 GAS;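 also: secreted streptokinase activity via plasminogen activation per viability signal from cell pellet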
T1 sequence (P10520 whole entry): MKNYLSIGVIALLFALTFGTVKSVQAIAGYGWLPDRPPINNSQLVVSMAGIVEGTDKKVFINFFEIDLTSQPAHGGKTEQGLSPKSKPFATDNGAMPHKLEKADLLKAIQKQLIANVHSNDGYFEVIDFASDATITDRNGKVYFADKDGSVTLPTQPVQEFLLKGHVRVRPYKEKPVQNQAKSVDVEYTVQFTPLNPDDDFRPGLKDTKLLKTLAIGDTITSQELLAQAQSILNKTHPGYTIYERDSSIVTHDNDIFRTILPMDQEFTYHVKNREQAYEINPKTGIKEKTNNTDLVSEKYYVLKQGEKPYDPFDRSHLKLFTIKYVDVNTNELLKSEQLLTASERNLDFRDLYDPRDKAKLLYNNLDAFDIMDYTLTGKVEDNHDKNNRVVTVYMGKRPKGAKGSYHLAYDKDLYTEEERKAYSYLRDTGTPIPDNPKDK

[12] = biological target: X-box-binding protein 1 (Homo sapiens, UniProt P17861); type: functional, Cricetulus griseus;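 also: confirmatory dose-response counter-screen serving a CHOP assay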
[13] = biological target: Melanin-concentrating hormone receptor 1 (Homo sapiens, UniProt Q99705); assay: Fluorescence-based counterscreen for antagonists of the G-protein coupled receptor 7 (GPR7): cell-based high throughput dose response assay to identify antagonists of the melanin-concentrating hormone receptor 1 (MCHR1).; type: functional
[14] = biological target: T2, Corticotropin-releasing factor receptor 2/Corticotropin-releasing factor-binding protein (Homo sapiens, UniProt P24387+Q13324); assay: activators of CRF receptor 2 with binding protein – uHTS hits, confirmation (AID 602473); type: functional; settings: read-out: EC50_Mean
T2 sequence (Q13324 whole entry): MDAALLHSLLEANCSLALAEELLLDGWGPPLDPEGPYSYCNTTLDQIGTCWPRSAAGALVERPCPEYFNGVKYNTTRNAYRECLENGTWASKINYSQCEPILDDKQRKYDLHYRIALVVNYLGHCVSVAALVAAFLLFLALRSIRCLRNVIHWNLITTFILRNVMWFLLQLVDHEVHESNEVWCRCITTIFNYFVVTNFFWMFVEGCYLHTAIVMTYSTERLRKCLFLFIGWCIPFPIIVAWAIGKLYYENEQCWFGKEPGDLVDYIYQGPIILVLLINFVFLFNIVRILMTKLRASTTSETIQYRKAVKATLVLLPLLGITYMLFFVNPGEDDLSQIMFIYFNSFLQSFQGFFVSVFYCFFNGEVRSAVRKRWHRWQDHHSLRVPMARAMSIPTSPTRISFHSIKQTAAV
T2 sequence (P24387 whole entry): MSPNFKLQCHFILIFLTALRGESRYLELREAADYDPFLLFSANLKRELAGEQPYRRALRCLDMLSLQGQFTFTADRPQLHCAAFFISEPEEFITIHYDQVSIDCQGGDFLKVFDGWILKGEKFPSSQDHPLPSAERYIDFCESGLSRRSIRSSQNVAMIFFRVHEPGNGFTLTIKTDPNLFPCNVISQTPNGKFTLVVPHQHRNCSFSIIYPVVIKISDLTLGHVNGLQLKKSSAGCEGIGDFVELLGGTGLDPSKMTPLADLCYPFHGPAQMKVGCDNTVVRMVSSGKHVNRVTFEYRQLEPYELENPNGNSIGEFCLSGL

[15] = biological target: Cytochrome P450 3A4 (Homo sapiens, UniProt P08684); settings: Potency;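 also: confirmatory qHTS run detecting inhibitors and substrates of CYP3A4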
[16] = biological target: T3, Alkaline phosphatase, tissue-nonspecific isozyme (Homo sapiens, UniProt P05186)
T3 sequence (P05186 whole entry): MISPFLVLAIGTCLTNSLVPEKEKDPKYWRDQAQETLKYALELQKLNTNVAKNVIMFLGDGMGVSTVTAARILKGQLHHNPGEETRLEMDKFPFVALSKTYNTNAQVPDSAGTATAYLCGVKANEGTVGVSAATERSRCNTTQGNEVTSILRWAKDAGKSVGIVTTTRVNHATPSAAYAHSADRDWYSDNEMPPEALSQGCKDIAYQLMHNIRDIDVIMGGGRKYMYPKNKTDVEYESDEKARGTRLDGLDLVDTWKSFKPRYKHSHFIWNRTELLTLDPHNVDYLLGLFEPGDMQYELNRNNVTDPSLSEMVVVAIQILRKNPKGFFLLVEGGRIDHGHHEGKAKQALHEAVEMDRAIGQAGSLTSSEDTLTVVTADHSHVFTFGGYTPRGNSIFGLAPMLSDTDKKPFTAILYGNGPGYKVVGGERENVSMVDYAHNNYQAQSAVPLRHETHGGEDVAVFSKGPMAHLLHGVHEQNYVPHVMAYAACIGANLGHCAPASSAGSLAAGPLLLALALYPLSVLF

[17] = growth suppression of PTEN-null colon cells, dose response, cell-based, HCT116 PTEN knockout (AID 1047); type: functional;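 also: HCT116 colon tumor cells with PTEN knocked out; cells exposed to compound for 60 hours before readout; potency for loss of cell viability measured by luminescence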
[18] = growth suppression of beta-catenin-knockout colon cells, dose response, cell-based, HCT116, human colon tumor (AID 1045); type: functional;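 also: HCT116 colon tumor cells with beta catenin knocked out; cells exposed to compound for 60 hours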
[19] = A Cell Based Secondary Assay To Explore Cytotoxicity of Compounds that Sensitize Mycobacterium Tuberculosis to Beta-Lactam Antibiotics.; type: functional
[20] = Luminescence-based dose response cell-based high throughput screening assay for cytotoxic compounds using the IEC-6 intestinal epithelial cell line. [Related pubchem assays: 1858 (Summary AID.), 1825 (Counterscreen.), 1907 (Confirmation screen.)]; type: functional

Sequence of Cytochrome P450 2D6 (P10635 whole entry): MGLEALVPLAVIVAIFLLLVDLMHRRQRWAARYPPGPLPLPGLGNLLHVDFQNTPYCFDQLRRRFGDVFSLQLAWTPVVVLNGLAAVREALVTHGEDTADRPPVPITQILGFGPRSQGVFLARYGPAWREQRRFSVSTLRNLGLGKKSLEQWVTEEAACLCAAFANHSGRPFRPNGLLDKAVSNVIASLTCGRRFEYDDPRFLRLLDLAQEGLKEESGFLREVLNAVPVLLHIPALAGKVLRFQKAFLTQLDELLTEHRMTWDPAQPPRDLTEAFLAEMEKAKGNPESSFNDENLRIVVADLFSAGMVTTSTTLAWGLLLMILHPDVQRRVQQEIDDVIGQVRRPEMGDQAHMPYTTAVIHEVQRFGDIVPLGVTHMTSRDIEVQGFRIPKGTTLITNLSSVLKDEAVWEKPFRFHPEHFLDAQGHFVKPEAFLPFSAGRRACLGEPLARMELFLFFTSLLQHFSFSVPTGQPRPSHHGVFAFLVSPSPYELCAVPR
Sequence of X-box-binding protein 1 (P17861 whole entry): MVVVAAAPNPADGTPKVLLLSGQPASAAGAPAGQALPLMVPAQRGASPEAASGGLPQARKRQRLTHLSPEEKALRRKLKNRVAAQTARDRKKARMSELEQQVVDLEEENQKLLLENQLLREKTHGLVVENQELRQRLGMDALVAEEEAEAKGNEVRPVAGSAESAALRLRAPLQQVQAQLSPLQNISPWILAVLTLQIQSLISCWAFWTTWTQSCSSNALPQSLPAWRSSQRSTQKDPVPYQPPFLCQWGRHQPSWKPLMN
Sequence of C-C chemokine receptor type 6 (P51684 whole entry): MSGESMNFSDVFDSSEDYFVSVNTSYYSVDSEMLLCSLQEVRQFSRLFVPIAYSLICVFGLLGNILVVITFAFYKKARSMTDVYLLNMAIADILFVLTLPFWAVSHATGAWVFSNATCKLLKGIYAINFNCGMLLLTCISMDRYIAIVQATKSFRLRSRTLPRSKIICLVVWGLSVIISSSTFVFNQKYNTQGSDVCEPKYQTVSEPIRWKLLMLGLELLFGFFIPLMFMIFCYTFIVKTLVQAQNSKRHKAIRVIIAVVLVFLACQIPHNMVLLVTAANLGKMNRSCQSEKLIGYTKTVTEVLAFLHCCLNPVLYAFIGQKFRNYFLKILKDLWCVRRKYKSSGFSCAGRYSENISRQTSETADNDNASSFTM
Sequence of Melanin-concentrating hormone receptor 1 (Q99705 whole entry): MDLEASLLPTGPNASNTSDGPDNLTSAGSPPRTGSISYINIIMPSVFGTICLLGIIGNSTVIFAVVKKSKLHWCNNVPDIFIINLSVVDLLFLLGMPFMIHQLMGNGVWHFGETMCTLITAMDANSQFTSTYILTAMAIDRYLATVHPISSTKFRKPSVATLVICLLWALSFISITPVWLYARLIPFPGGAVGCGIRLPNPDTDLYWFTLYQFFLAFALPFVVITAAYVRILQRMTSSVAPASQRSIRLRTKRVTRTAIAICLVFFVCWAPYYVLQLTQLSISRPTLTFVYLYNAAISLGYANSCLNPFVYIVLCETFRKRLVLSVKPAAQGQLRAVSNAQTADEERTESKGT
Sequence of Beta-galactosidase (Q8VNN2 whole entry): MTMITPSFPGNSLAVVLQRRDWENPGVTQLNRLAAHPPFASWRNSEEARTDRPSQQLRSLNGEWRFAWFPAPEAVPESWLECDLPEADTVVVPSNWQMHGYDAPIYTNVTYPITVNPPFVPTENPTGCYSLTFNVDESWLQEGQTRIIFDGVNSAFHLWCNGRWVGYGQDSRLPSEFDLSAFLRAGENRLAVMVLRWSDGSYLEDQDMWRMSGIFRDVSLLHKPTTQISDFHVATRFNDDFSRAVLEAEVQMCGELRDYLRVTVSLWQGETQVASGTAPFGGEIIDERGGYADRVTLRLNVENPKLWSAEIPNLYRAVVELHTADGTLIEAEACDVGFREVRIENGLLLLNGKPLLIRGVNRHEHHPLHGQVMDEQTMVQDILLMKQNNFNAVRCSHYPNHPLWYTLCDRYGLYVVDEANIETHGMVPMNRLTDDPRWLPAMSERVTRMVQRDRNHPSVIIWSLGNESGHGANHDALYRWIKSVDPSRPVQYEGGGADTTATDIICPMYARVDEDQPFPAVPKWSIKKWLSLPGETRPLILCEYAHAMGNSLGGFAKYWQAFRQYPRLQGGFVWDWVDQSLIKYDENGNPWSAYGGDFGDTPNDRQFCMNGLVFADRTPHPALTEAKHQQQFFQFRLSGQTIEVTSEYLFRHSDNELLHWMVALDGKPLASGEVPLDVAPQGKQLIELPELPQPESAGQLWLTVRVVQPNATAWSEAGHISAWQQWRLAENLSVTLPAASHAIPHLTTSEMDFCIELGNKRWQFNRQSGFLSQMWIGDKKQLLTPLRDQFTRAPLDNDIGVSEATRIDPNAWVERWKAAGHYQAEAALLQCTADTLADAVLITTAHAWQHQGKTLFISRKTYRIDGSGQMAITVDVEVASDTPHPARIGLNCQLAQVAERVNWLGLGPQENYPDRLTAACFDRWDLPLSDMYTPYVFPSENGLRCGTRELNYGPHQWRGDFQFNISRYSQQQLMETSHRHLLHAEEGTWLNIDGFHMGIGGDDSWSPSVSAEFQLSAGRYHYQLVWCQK
Sequence of Cytochrome P450 3A4 (P08684 whole entry): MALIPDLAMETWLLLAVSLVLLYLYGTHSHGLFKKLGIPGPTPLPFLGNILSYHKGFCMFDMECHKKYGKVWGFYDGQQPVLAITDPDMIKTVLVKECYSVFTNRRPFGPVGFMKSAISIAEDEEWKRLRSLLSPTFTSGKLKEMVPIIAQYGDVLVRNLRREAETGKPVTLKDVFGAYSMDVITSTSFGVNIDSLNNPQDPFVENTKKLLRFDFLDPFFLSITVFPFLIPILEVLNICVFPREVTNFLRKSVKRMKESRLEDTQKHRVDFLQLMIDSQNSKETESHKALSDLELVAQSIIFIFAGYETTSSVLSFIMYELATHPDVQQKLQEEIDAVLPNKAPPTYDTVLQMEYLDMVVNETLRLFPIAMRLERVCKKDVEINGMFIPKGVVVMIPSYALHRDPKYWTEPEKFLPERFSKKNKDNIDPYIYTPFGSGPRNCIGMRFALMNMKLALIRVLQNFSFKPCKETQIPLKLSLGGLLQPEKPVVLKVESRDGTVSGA
Sequence of DNA dC->dU-editing enzyme APOBEC-3G (Q9HC16 whole entry): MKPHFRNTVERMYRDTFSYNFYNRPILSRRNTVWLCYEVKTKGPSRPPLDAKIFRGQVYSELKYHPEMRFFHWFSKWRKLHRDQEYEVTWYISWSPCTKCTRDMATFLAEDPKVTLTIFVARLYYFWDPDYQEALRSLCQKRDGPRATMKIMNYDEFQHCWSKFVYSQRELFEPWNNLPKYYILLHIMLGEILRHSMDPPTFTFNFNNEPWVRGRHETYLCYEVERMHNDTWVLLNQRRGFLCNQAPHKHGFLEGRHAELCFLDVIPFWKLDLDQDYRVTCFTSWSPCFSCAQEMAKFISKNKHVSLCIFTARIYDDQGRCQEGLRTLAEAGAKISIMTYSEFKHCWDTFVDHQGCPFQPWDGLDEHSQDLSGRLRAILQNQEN

## Cc1ccc(C)c2sc(NC(=O)c3nc4ccccc4s3)nc12
[1]
  IC50: > 66.6 µM (inactive)
[2]
  IC50: 869 nM (active)

## CCN(CC)c1ccc(NC(=O)c2ccccc2)cc1S(=O)(=O)Nc1ccccc1OC
[3]
  IC50: 30 µM (active)

## Cc1nc2ccccc2nc1Nc1cccc(Cl)c1
[4]
  IC50: 11.7 µM (active)
[5]
  CC50: 24.1 µM (active)

## COc1ccc(NC(=O)/C=C\c2ccc(Cl)cc2)cc1
[6]
  AC50: 25.1 µM (inconclusive)

## COc1ccc(NC(C#N)c2ccc(OC)cc2)cc1 (configuration not stated)
[7]
  IC50: > 100 µM (active)

## Cc1ccc(C(OCC(O)CNC(C)c2ccccc2)c2ccccc2)cc1 (configuration not stated)
[8]
  CC50: 18.9 µM (active)

## Cc1ccc(NC(=O)c2ccc(C#CC3(O)CCCCC3)cc2)cc1C
[9]
  EC50: > 150 µM (not active)
[10]
  EC50: > 150 µM (not active)
[11]
  EC50: 7.36 µM (inconclusive)
[12]
  Absolute IC50 (XBP1): 10 µM

## C#CC(CO)N(CCN(Cc1ccccc1)C(C#C)CO)Cc1ccccc1 (configuration not stated)
[13]
  IC50: 15 µM (not active)

## Clc1ccc(-c2ccc(/C=N/c3ccc(N4CCOCC4)cc3)o2)c(Cl)c1
[7]
  IC50: > 100 µM (active)
[14]
  EC50: 6.68 µM (active)

## O=c1cc(-c2cccc(O)c2O)oc2ccccc12
[6]
  AC50: 31.6 µM (inconclusive)
[15]
  AC50: 20 µM (inconclusive)

## Cn1c(=O)c2c(nc(N/N=C/c3cccs3)n2Cc2ccccc2)n(C)c1=O
[16]
  EC50: > 100 µM (not active)
[17]
  EC50: 56.2 µM (active)
[18]
  EC50: 84.2 µM (active)

## O=C1N=C(N/N=C/c2ccc3ncccc3c2)SC1Cc1ccc(SC(F)F)cc1 (configuration not stated)
[19]
  CC50: > 40 µM (active)

## C=C1[C@@H](C)[C@H]2[C@H](Cc3ccccc3)NC(=O)[C@]23OC(=O)/C=C/[C@H](O)CCC[C@@H](C)C/C=C/[C@H]3[C@@H]1O [CYTOCHALASIN B]
[20]
  IC50: 424 nM (active)
